# Measurements from PMC5761851, “Application of a phenotypic drug discovery strategy to identify biological and chemical starting points for inhibition of TSLP production in lung epithelial cells” (PLoS ONE, 2018).
# Assays:
# Assay in all cases: kinase selectivity panel
# Format in all cases: biochemical
# [1] = target: T1, CDK9/cyclin T1 (Homo sapiens, UniProt P50750); details: read-out: percentage of control activity (POC), CDK9/cyclin T1
# T1 construct: purchased Eurofins Pharma Discovery Services (KinaseProfiler; Cerep BioPrint panel)
# How it was run: (§1)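 First, 125 representative kinases were exposed to 10 μM compound in duplicate; next, selected activities were titrated over 9 concentrations in duplicate, and IC50 values were calculated.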
# [2] = target: T2, CHK1 (Homo sapiens, UniProt O14757); details: read-out: percentage of control activity (POC), CHK1
# T2 construct: purchased Eurofins Pharma Discovery Services (KinaseProfiler; Cerep BioPrint panel)
# T2 sequence (O14757 1-476): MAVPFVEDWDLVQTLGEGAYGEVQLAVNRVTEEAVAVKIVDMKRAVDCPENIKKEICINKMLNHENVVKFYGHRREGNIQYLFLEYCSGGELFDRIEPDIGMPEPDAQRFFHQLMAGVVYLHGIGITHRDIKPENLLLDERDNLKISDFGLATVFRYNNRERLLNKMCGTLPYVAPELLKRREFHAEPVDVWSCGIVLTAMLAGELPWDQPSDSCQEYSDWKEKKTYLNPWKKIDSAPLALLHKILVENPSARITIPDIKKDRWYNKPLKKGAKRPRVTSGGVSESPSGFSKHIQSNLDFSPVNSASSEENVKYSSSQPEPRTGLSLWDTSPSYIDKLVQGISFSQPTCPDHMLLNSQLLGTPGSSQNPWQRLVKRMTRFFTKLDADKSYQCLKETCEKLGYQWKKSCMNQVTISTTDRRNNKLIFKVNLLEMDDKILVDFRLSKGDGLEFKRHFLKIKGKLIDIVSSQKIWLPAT
# How it was run: as §1
# [3] = target: T3, CaMKIIδ (Homo sapiens, UniProt Q13557); details: read-out: percentage of control activity (POC), CaMKIIδ
# T3 construct: purchased Eurofins Pharma Discovery Services (KinaseProfiler; Cerep BioPrint panel)
# How it was run: as §1
# [4] = target: T4, Fer (Homo sapiens, UniProt P16591); details: read-out: percentage of control activity (POC), Fer
# T4 construct: purchased Eurofins Pharma Discovery Services (KinaseProfiler; Cerep BioPrint panel)
# How it was run: as §1
# [5] = target: T5, Fms (Homo sapiens, UniProt P07333); details: for remaining activity at 10 µM: read-out: percentage of control activity (POC), Fms
# T5 construct: purchased Eurofins Pharma Discovery Services (KinaseProfiler; Cerep BioPrint panel)
# How it was run: as §1
# [6] = target: T6, IKKα (Homo sapiens, UniProt O15111); details: read-out: percentage of control activity (POC), IKKα
# T6 construct: purchased Eurofins Pharma Discovery Services (KinaseProfiler; Cerep BioPrint panel)
# T6 sequence (O15111 1-745): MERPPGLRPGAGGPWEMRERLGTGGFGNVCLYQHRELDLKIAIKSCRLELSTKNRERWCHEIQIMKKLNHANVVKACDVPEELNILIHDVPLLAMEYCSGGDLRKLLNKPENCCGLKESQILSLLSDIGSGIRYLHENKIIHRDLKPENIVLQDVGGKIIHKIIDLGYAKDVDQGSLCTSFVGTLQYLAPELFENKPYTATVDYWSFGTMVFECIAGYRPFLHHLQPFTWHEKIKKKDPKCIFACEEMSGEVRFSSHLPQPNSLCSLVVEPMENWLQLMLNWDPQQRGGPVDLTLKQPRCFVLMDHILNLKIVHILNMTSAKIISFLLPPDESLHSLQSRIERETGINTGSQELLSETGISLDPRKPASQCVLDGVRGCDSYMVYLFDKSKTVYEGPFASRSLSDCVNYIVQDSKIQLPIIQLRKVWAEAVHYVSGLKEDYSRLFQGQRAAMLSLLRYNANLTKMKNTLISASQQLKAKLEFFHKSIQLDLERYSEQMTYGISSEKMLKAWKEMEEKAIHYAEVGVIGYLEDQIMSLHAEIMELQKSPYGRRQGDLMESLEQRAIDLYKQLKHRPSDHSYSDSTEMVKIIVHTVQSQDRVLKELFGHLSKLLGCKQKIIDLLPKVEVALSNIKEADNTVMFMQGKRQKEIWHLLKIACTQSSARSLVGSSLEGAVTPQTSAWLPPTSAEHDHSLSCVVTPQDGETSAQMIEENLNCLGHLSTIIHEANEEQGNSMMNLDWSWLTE
# How it was run: as §1
# [7] = target: T7, JNK3 (Homo sapiens, UniProt P53779); details: read-out: percentage of control activity (POC), JNK3
# T7 construct: purchased Eurofins Pharma Discovery Services (KinaseProfiler; Cerep BioPrint panel)
# How it was run: as §1
# [8] = target: T8, KDR (Homo sapiens, UniProt P35968); details: read-out: percentage of control activity (POC), KDR
# T8 construct: purchased Eurofins Pharma Discovery Services (KinaseProfiler; Cerep BioPrint panel)
# How it was run: as §1
# [9] = target: T9, MLK1 (Homo sapiens, UniProt P80192); details: read-out: percentage of control activity (POC), MLK1
# T9 construct: purchased Eurofins Pharma Discovery Services (KinaseProfiler; Cerep BioPrint panel)
# How it was run: as §1
# [10] = target: T10, PDK1 (Homo sapiens, UniProt O15530); details: read-out: percentage of control activity (POC), PDK1
# T10 construct: purchased Eurofins Pharma Discovery Services (KinaseProfiler; Cerep BioPrint panel)
# T10 sequence (O15530 1-556): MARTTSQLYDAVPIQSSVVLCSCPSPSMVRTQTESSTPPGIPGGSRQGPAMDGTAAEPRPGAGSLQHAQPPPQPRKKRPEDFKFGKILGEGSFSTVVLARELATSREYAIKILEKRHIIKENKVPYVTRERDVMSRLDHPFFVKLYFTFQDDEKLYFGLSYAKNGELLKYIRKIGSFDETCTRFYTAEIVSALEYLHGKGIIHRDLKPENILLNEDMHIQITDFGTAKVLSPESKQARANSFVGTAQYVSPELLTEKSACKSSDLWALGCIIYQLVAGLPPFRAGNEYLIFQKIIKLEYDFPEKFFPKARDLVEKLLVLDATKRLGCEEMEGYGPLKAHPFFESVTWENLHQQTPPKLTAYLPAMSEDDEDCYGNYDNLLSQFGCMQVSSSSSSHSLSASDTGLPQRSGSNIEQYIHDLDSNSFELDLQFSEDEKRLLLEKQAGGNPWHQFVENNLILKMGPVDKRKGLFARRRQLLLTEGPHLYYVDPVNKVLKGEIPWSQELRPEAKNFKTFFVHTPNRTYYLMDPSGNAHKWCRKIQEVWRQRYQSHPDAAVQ
# How it was run: as §1
# [11] = target: T11, PKCθ (Homo sapiens, UniProt Q04759); details: read-out: percentage of control activity (POC), PKCθ
# T11 construct: purchased Eurofins Pharma Discovery Services (KinaseProfiler; Cerep BioPrint panel)
# How it was run: as §1
# [12] = target: T12, Pyk2 (Homo sapiens, UniProt Q14289); details: read-out: percentage of control activity (POC), Pyk2
# T12 construct: purchased Eurofins Pharma Discovery Services (KinaseProfiler; Cerep BioPrint panel)
# How it was run: as §1
# [13] = target: T13, SAPK2a (Homo sapiens, UniProt Q16539); details: for inhibition at 10 µM: read-out: inhibition of p38α(SAPK2α); for remaining activity at 10 µM: read-out: percentage of control activity (POC), SAPK2a
# T13 construct: purchased Eurofins Pharma Discovery Services (KinaseProfiler; Cerep BioPrint panel)
# How it was run: as §1
# [14] = target: T14, p70S6K (Homo sapiens, UniProt P23443); details: read-out: percentage of control activity (POC), p70S6K
# T14 construct: purchased Eurofins Pharma Discovery Services (KinaseProfiler; Cerep BioPrint panel)
# How it was run: as §1
# T4 sequence (P16591 whole entry): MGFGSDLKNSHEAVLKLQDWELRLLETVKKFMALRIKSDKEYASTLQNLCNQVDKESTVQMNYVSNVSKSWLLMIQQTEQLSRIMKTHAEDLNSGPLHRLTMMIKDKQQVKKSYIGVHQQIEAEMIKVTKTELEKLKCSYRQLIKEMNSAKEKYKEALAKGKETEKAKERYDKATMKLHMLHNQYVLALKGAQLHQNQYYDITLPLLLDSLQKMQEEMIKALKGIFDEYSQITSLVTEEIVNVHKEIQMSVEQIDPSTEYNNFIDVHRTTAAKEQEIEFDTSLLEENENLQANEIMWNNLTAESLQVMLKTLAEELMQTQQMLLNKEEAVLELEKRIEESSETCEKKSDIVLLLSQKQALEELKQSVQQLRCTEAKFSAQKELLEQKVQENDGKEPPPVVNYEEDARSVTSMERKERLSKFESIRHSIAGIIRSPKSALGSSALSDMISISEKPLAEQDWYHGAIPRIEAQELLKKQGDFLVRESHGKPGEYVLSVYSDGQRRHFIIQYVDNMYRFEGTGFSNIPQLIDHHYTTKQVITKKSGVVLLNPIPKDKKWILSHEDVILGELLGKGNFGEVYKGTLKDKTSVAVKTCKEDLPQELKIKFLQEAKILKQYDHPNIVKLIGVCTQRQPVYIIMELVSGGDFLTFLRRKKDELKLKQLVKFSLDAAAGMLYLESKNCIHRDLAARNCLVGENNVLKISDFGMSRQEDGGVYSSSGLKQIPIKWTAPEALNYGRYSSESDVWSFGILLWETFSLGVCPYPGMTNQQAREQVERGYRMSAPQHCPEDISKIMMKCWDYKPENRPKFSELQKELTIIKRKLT
# T5 sequence (P07333 20-972): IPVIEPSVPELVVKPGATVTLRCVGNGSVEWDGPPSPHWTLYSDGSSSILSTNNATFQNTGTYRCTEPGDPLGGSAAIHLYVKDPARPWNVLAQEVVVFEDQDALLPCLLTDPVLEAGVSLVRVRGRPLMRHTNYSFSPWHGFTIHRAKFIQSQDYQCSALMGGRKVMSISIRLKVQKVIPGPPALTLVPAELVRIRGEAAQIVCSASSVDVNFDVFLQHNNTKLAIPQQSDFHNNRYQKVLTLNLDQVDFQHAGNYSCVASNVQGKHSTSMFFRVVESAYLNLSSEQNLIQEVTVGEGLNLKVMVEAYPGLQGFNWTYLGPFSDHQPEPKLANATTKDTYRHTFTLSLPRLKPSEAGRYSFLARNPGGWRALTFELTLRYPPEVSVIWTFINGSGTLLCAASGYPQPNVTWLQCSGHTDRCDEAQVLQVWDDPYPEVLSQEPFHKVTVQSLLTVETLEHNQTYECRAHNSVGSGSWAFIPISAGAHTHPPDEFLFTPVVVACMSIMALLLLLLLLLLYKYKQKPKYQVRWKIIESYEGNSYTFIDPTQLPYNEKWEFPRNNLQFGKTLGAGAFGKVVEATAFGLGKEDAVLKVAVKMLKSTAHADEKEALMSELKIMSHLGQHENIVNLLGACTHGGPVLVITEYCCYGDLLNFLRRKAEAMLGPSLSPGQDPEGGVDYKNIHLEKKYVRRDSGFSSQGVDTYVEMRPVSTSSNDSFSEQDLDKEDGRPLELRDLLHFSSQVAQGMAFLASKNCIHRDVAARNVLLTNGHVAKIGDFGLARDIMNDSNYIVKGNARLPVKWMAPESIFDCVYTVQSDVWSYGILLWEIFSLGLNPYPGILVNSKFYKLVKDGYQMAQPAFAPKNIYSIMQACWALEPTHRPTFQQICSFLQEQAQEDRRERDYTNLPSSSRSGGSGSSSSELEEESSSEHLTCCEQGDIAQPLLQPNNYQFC
# T13 sequence (Q16539 whole entry): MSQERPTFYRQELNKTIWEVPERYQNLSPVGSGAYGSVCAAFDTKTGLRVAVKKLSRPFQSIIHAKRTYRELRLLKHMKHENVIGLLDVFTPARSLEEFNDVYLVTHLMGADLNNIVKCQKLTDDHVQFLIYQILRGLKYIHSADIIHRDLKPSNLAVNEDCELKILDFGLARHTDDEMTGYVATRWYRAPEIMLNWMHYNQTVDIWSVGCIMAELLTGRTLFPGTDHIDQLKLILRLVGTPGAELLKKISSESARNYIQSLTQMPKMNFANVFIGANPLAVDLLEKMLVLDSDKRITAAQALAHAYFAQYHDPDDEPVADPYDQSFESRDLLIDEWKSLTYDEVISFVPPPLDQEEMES
# T8 sequence (P35968 20-1356): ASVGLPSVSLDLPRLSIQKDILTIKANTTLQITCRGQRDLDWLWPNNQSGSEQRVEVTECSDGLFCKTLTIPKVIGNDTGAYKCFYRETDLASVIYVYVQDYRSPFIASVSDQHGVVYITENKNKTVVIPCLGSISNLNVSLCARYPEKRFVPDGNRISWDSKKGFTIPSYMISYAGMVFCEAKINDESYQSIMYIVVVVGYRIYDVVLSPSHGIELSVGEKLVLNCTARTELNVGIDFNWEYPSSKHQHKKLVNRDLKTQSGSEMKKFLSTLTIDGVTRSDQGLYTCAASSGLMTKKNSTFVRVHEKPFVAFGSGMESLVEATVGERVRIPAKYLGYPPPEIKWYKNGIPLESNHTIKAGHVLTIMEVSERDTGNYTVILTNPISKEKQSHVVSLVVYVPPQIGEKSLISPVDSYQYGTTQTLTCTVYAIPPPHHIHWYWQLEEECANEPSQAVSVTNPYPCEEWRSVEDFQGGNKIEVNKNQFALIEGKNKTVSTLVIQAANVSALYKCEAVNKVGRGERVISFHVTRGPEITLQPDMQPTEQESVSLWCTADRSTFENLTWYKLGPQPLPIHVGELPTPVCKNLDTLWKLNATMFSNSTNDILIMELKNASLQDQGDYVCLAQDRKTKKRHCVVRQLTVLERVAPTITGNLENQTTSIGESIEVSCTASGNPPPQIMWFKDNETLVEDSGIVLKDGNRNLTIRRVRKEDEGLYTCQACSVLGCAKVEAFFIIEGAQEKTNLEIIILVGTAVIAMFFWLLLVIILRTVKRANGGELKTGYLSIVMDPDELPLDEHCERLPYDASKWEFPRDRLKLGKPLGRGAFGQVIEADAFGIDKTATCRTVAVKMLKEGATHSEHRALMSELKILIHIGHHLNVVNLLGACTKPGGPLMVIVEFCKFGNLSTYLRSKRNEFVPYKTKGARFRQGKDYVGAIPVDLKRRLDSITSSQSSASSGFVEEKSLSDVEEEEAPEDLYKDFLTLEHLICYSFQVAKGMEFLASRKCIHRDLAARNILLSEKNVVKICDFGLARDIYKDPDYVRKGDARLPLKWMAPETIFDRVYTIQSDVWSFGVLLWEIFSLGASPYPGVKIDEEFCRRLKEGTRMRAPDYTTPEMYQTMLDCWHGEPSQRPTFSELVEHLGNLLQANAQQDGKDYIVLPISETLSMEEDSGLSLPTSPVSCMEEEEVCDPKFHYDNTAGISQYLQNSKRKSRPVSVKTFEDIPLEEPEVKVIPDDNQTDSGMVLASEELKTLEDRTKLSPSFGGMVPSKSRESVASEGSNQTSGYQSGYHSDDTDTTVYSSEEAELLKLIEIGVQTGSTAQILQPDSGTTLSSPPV
# T1 sequence (P50750 whole entry): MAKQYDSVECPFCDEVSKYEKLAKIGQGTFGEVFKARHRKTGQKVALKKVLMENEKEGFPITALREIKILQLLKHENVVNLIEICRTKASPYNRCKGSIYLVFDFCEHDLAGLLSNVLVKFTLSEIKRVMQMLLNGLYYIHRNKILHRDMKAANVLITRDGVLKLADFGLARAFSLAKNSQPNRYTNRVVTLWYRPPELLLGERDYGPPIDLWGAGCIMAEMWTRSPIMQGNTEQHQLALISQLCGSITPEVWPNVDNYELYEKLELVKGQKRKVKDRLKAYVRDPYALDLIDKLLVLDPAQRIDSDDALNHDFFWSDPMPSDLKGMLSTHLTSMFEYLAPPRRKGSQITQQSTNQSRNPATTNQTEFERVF
# T1 sequence (O60563 whole entry partner): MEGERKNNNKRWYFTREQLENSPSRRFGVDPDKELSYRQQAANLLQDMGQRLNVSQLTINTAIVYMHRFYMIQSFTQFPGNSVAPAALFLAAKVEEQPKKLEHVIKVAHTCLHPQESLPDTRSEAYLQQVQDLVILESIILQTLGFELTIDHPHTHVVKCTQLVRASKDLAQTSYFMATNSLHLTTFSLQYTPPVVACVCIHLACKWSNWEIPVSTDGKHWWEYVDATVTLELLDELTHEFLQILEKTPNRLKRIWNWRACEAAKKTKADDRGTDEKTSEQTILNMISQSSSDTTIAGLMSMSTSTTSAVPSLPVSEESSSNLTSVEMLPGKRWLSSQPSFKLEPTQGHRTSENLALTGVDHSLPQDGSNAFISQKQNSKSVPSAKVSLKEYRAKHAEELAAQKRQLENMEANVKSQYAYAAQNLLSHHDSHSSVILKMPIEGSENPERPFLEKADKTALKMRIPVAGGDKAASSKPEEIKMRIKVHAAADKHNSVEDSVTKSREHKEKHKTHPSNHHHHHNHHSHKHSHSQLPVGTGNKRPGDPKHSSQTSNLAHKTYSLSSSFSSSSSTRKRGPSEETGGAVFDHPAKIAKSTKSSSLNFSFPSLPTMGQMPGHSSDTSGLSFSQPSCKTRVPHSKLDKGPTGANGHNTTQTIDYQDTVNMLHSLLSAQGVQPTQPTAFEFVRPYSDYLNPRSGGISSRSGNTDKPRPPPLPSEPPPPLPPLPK
# T3 sequence (Q13557 whole entry): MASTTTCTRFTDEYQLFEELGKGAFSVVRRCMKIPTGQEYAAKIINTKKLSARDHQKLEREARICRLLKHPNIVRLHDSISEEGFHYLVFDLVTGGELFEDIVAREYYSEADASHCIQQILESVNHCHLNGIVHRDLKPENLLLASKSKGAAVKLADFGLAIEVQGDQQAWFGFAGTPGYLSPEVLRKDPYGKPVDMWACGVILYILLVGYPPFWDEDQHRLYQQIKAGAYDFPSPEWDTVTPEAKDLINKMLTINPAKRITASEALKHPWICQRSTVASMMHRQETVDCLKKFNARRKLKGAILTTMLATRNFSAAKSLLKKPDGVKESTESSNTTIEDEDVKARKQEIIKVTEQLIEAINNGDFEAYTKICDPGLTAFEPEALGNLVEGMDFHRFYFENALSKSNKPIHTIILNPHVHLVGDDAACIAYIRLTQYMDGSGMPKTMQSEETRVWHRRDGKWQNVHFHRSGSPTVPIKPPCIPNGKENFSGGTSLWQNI
SMILES,remaining activity at 10 µM [1] [%],remaining activity at 10 µM [2] [%],remaining activity at 10 µM [3] [%],remaining activity at 10 µM [4] [%],remaining activity at 10 µM [5] [%],remaining activity at 10 µM [6] [%],remaining activity at 10 µM [7] [%],remaining activity at 10 µM [8] [%],remaining activity at 10 µM [9] [%],remaining activity at 10 µM [10] [%],remaining activity at 10 µM [11] [%],remaining activity at 10 µM [12] [%],inhibition at 10 µM [13] [%],remaining activity at 10 µM [13] [%],remaining activity at 10 µM [14] [%],inhibition at 10 µM [5] [%]
CC(C)(C)N1CCC(c2cc(-c3ccc(F)cc3Cl)c3cc[n+]([O-])c(-c4c(Cl)cccc4Cl)c3n2)CC1 [compound 2],96,103,100,109,100,102,97,92,99,121,91,99,~100,-1,104,–
Cn1cc(-c2cccc(-c3nc(C(=O)NC4C5CC6CC4CC(O)(C6)C5)c(N)nc3N)c2)cn1 (stereo not drawn) [compound 4],95,94,93,99,63,100,72,72,79,118,84,86,–,91,92,–
CS(=O)(=O)N1CCN(c2ccc(Nc3ncc(C(N)=O)c(NC4CC4)n3)cc2)CC1 [compound 5],56,1,27,14,-2,1,-4,6,-1,7,26,4,–,89,54,–

# Now from value to molecule:
remaining activity at 10 µM [1] [%],remaining activity at 10 µM [2] [%],remaining activity at 10 µM [3] [%],remaining activity at 10 µM [4] [%],remaining activity at 10 µM [5] [%],remaining activity at 10 µM [6] [%],remaining activity at 10 µM [7] [%],remaining activity at 10 µM [8] [%],remaining activity at 10 µM [9] [%],remaining activity at 10 µM [10] [%],remaining activity at 10 µM [11] [%],remaining activity at 10 µM [12] [%],inhibition at 10 µM [13] [%],remaining activity at 10 µM [13] [%],remaining activity at 10 µM [14] [%],inhibition at 10 µM [5] [%],SMILES
85,100,103,102,47,101,65,93,97,98,97,99,~100,-2,95,53,Cc1ccc(C(=O)NCC2CC2)cc1-c1ccc2c(c1)NC(=O)C21CCCC1 [compound 3]
97,103,96,105,26,135,75,82,104,121,98,87,~100,-1,102,74,"COc1c(NC(=O)c2ccc(C)c(-c3nnc4c(NCC(C)(C)C)nccn34)c2)cc(C(C)(C)C)cc1NS(C)(=O)=O [compound 7, reference compound]"
